Assay [1] deals with T1, MARK4 (Homo sapiens, UniProt Q96L34).
T1 sequence (Q96L34 1-752): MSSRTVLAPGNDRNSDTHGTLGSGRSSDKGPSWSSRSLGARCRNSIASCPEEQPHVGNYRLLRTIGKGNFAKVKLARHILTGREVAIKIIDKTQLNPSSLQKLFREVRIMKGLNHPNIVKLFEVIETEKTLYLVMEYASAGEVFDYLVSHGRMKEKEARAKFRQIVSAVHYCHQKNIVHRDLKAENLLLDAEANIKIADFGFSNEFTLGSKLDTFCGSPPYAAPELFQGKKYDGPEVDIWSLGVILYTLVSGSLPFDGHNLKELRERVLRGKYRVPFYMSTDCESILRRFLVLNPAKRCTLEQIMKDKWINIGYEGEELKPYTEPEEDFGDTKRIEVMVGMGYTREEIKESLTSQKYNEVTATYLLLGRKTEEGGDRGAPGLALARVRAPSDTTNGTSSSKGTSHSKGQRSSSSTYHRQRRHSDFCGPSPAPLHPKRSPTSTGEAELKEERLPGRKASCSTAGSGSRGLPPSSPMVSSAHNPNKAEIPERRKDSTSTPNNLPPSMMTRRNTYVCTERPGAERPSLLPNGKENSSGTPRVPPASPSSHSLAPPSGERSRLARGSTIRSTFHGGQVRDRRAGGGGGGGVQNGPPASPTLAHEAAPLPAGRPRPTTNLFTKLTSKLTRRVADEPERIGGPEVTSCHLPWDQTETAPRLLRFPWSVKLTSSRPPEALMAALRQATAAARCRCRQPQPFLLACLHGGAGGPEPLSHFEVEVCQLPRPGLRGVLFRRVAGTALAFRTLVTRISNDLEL
Description: Fluorescence quenching binding assay. The following applies: modified Stern-Volmer equation; excitation 280 nm; read-out: binding constant (K) (converted). As to the method: A fluorescence-based binding assay was conducted to evaluate the binding efficiency of ligands. During the titration, the concentration of the pure MARK4 protein was kept constant while increasing concentrations of the ligand ([31]). The emission data were collected using a Jasco FP-6200 spectrofluorimeter (Japan), with a slit width of 10 nm and medium sensitivity. The samples were excited at 280 nm, and the emission spectra were recorded. Blank subtracted spectra are reported, and each measurement was performed in triplicate. For fluorescence values, we took the inner filter effect into account ([32]). The binding constant (K) was calculated using the Stern-Volmer (SV) (Equations 1, 2). (1) F0/F=1+KsvC (2) logF0−F/F=logK+nlogC Where F0 denotes the fluorescence intensity of the protein in the absence of ligands, whereas F indicates the fluorescence intensity when ligands are present. K represents the binding constant, n indicates the number of binding sites, and C refers to the concentration of the ligand.

In assay [2] the target is T1, MARK4. As to the kind of experiment: ATPase inhibition assay (Malachite green) with purified MARK4. Type of assay: biochemical. The note with it: MARK4 5 μM, ATP 200 μM, ligand 0–10 μM, 1 h at 25°C, read-out: IC50 against MARK4. The protocol: Purified MARK4 was used to conduct ATPase inhibition experiment following the reported method ([18], [30]). The concentration of the purified protein used was 5 μM, the ligand concentration was 0–10 μM and the substrate (ATP) was 200 μM. The ligand concentration was increased gradually against a given concentration of MARK4. The experiment involved combining MARK4 with freshly prepared ATP, resulting in a final reaction mixture volume of 100 μL. This mixture was incubated for 1 h at 25°C. This is followed by the addition of Malachite green solution (200 μL) to quench the reaction. The samples were allowed to incubate at room temperature for color development. Finally, the reaction mixture (100 μL) was filled into 96-well plates and analyzed using a multiscan ELISA reader (λ = 620 nm). All experimental reactions were conducted in triplicate to ensure statistical reliability.

For the next assay, the target named is MARK4 enzyme. The note with it: cited from earlier work.
[3] abbreviates: read-out: IC50 MARK4 enzyme in vitro.

Like-named read-outs stand apart in the source and are kept apart here.

This is an account of results in PMC11962044, “Experimental and theoretical studies on structural changes in the microtubule affinity-regulating kinase 4 (MARK4) protein induced by N-hetarenes: a new class of therapeutic candidates for Alzheimer’s disease” (Frontiers in Medicine, 2025).

Broadly, the IC50 is the point on the concentration scale where inhibition reaches its midpoint. Turning to `Cc1ccc(-c2cc(N3CCN(C(=N)N)CC3)ncn2)cc1` [Compound 5, 4-(6-(p-Tolyl)pyrimidin-4-yl)piperazine-1-carboximidamide], the Kd on MARK4 [1] is 6.67 µM. The IC50 at MARK4 [2] amounted to 5.35 ± 0.22 µM. Take `N=C(N)N1CCN(c2cc(-c3ccc(Cl)c(Cl)c3)ncn2)CC1` [Compound 6, 4-(6-(3,4-Dichlorophenyl)pyrimidin-4-yl)piperazine-1-carboximidamide]: the half-maximal inhibitory concentration (IC50) on MARK4 [2] was determined as 11.8 ± 1.19 µM. On the same count and under the same terms, with `N=C(N)N1CCN(c2cc(-c3ccc(F)c(Cl)c3)ncn2)CC1` [Compound 7, 4-(6-(3-Chloro-4-fluorophenyl)pyrimidin-4-yl)piperazine-1-carboximidamide] the figure was 16.5 ± 1.71 µM; with `N=C(N)N1CCN(c2cc(-c3ccc(C(F)(F)F)cc3)ncn2)CC1` [Compound 8, 4-(6-(4-(Trifluoromethyl)phenyl)pyrimidin-4-yl)piperazine-1-carboximidamide], 15.8 ± 0.92 µM. For the compound `N=C(N)N1CCN(c2cc(-c3cc4ccccc4s3)ncn2)CC1` [Compound 9, 4-(6-(benzo[b]thiophen-2-yl)pyrimidin-4-yl)piperazine-1-carboximidamide], the Kd on MARK4 [1] was 8.77 µM. In addition, the concentration for half-maximal inhibition (IC50) on MARK4 [2] is 6.68 ± 0.8 µM.

As for `N=C(N)N1CCN(c2cc(-c3ccc(OC(F)(F)F)cc3)ncn2)CC1` [Compound 10, 4-(6-(4-(Trifluoromethoxy)phenyl)pyrimidin-4-yl)piperazine-1-carboximidamide], the 50% inhibitory concentration (IC50) on MARK4 [2] was 7.28 ± 0.49 µM. On to `O=C(/C=C/c1ccc(O)c(O)c1)O[C@H](Cc1ccc(O)c(O)c1)C(=O)O` [Rosmarinic acid], for which, at MARK4 enzyme (reference inhibitor of MARK4, read-out: IC50 of the reference inhibitor), the 50% inhibitory concentration (IC50) was about 6.2 µM.

Take `COc1cc2c(cc1OC)C(=O)C(CC1CCN(Cc3ccccc3)CC1)C2` (centres unmarked) [donepezil]: at MARK4 enzyme (setting [3]), the concentration for half-maximal inhibition (IC50) is 5.3 µM. Consider `CCN(C)C(=O)Oc1cccc([C@H](C)N(C)C)c1` [rivastigmine], for which, at MARK4 enzyme (setting [3]), the half-inhibitory concentration (IC50) was 6.74 µM.
